PMC6950750, “Newly Discovered Action of HpTx3 from Venom of Heteropoda venatoria on Nav1.7 and Its Pharmacological Implications in Analgesia” (Toxins, 2019)
Bridge positions count the residues as written; N and C are the ends. Peptide text beside a SMILES is read from it.

Columns and labels:
[1] = tested on: C57BL/6 mice, formalin-induced pain model; test: Formalin-induced paw licking; format: in vivo, mouse (C57BL/6); conditions: morphine 1 mg/kg i.m., n = 8
Experimental: (§1) Healthy female C57BL/6 mice (weighting 18–20 g) that were used for analgesic activity assay were obtained from the Experimental Animal Center of SLac-kinda (Changsha, China) and were randomly assigned to five groups, each group generally containing 8 mice. […] The mice were maintained at a temperature of 20–25 °C and under a 12 h light/12 h dark cycle, with free access to food and water. The ethical approval for the in vivo animal experiments was obtained from the Animal Care and Use Committee of the Hunan Province Animal Management Office. (The approval code: 219/2019).
The changes in the formalin-induced nociceptive reaction in mice was used to assess the in vivo effect of HpTx3 on Nav1.7-mediated pain [74, 77, 78]. Paw licking, a pain-related behavior, was induced by subcutaneous intraplantar injection of formalin. […] The time that was spent to lick the injected paw by each mouse during phase I (0–10 min after injection) and phase II (15–35 min after injection) was separately recorded with a digital stopwatch. The nociceptive behavior attenuation by HpTx3 was evaluated by comparison of the paw licking times of the mice in each group.

[2] = tested on: C57BL/6 mice, CFA pain model; test: Complete Freund’s adjuvant (CFA)-induced hyperalgesia; format: in vivo, mouse (C57BL/6); conditions: morphine 1 mg/kg i.m.
Experimental: as §1

[3] = tested on: C57BL/6 mice, hot plate pain model; test: Hot plate test; format: in vivo, mouse (C57BL/6); conditions: morphine 1 mg/kg i.p.
Experimental: as §1
Hot plate test was conducted according to the method described. The hot plate test apparatus (model YSL-21, Jinan, China) was placed in a quiet room, and the temperature was set at 55 ± 1 °C. After each mouse was placed at the hot plate, its nociceptive responses (hind-paw licking or jumping) and nociceptive threshold (paw withdrawal latency) were observed and recorded. […] The mice displaying abnormal baseline paw withdrawals (shorter than 5 s and longer than 30 s) were excluded from the test.

C57BL/6 mice, SNI model = test: Spared nerve injury (SNI) model; format: in vivo, mouse (C57BL/6); conditions: morphine 1 mg/kg; 18 days after surgery; control 0.47 g; n = 8
Experimental: as §1

Nav1.7 D816N = biological target: T1, Nav1.7 D816N (Homo sapiens, UniProt Q15858, D827N); test: Whole-cell patch-clamp, mutant Nav1.7 D816N; format: cell-based
T1 construct: expressed in transfected cells; host or cells: HEK293T
From the text: (§2) All the used Nav channel subtype clones (Nav1.2–Nav1.9) and β subunit clones were preserved in our laboratory. cDNAs encoding rat Nav1.2, rat Nav1.3, human Nav1.5, and mouse Nav1.6 were subcloned into the vector pcDNA3.1; cDNA encoding rat Nav1.4 was subcloned into the vector pRGB4; cDNA encoding human Nav1.7 was subcloned into the vector pcDNA3.1-mod; cDNAs encoding rat Nav1.8 and human Nav1.9 were subcloned into the vectors pCMV-HA and pEGFP-N1, respectively. For localizing the binding sites of HpTx3 on the Nav1.7 and therefore probing the its mechanism of action, several chimeras were constructed with a recombination strategy by replacing the extracellular loop S3b–S4 in domain II, domain III, and domain IV of Nav1.7 with the counterpart sequences of Nav1.8, respectively, using the methods described. As a result, three chimeras were prepared, namely, Nav1.7/1.8DIIS3b–S4, Nav1.7/1.8DIII, and Nav1.7/1.8 DIV. Moreover, the amino acid residues D816 and E818 in the S3b–S4 sequence of Nav1.7 were mutated into N (Nav1.7 D816N) and Q (Nav1.7 E816Q), respectively.
(§3) For heterologous expression, the vector plasmids containing wild-type (WT) Nav1.2–Nav1.7 and mutant plasmids were transiently transfected into HEK293T cells (China Center for Type Culture Collection, Wuhan, China) using Lipofectamine 2000 (Invitrogen, Carlsbad, CA, USA) according to the manufacturer’s instructions. […] The cells with green fluorescence were selected for whole-cell patch-clamp analysis 24 h after transfection.
The whole-cell patch-clamp technique was employed to analyze the effects of HpTx3 on Nav channel subtypes in the transfected HEK293T and ND7/23 cells using an EPC-10 USB patch-clamp amplifier (HEKA, Elektronik, Lambrecht, Germany). […] Data were collected with the PatchMaster software in the HEKA EPC-10 USB patch-clamp system (HEKA Elektronik, Lambrecht, Germany) and analyzed by the software Igo Pro-6.00, Prism (GraphPad Software, La Jolla, CA, USA), Sigmaplot 10.0 (Systat Software, Inc., San Jose, CA, USA), and OriginPro. […]

Nav1.5 = biological target: T2, Nav1.5 (Homo sapiens, UniProt Q14524); test: cell-based; format: cell-based
T2 construct: expressed in transfected cells; host or cells: HEK293T
From the text: as §2, with “Moreover, the amino acid residues D816 and E818 in the S3b–S4 sequence of Nav1.7 were mutated into N (Nav1.7 D816N) and Q (Nav1.7 E816Q), respectively.” left out
as §3, with “transfection. […]” for “transfection.”

Nav1.4 = biological target: T3, Nav1.4 (Rattus norvegicus, UniProt P15390); test: Whole-cell patch-clamp, Nav1.4 currents in HEK293T cells; format: cell-based
T3 construct: expressed in transfected cells; host or cells: HEK293T
From the text: as §2, with “Moreover, the amino acid residues D816 and E818 in the S3b–S4 sequence of Nav1.7 were mutated into N (Nav1.7 D816N) and Q (Nav1.7 E816Q), respectively.” left out
as §3, with “transfection. […]” for “transfection.”

Nav1.6 = biological target: T4, Nav1.6 (Mus musculus, UniProt Q9WTU3); test: Whole-cell patch-clamp, Nav1.6 currents in HEK293T cells; format: cell-based; conditions: HEK-293T, 1 μM HpTx3, n = 4–6
T4 construct: expressed in transfected cells; host or cells: HEK293T
From the text: as §2, with “Moreover, the amino acid residues D816 and E818 in the S3b–S4 sequence of Nav1.7 were mutated into N (Nav1.7 D816N) and Q (Nav1.7 E816Q), respectively.” left out
as §3, with “transfection. […]” for “transfection.”

Nav1.7 [4] = biological target: T5, Nav1.7 (Homo sapiens, UniProt Q15858); test: Whole-cell patch-clamp, Nav1.7 currents in HEK293T cells; format: cell-based; conditions: wild type Nav1.7, HEK293T, mean ± SD, n = 4–6
T5 construct: expressed in transfected cells; host or cells: HEK293T
From the text: as §2, with “Moreover, the amino acid residues D816 and E818 in the S3b–S4 sequence of Nav1.7 were mutated into N (Nav1.7 D816N) and Q (Nav1.7 E816Q), respectively.” left out
as §3, with “transfection. […]” for “transfection.”

hERG channel = test: Whole-cell patch-clamp, hERG channel in HEK293T cells; format: cell-based; conditions: 1 µM HpTx3, n = 3
Experimental: The effect of HpTx3 on the hERG channel expressed in HEK293T cells was assayed using the whole cell patch-clamp technique according to the previous method with some modifications. The bathing solution contained (in mM): HEPES 10, MgCl2 1, CaCl2 25, KCl 5, NaCl 50 (pH 7.4, adjusted with 1 M NaOH). The suction pipettes solution contained (in mM): MgCl2 2.5, KCl 140, EGTA 11, HEPES 10 (pH 7.2, adjusted with KOH). The osmotic pressure of the two solutions was adjusted to 280 ± 5 mOsm/L with sucrose. The currents of the hERG channel were induced at −40 mV after a test potential of +30 mV from a holding potential of −80 mV.

C57BL/6 mice = test: In vivo toxicity; design: species or system mouse (C57BL/6); conditions: 20 mg/kg i.p., 8 mice
Experimental: For detecting the potential in vivo toxicity of HpTx3, eight C57BL/6 mice were each intraperitoneally injected with HpTx3 at a dose of 20 mg/kg, which was 4-fold greater than the maximum dose (5 mg/kg) and 100-fold greater than the minimum dose (0.2 mg/kg) that were used in analgesic experiments.

Nav1.2 = biological target: T6, Nav1.2 (Rattus norvegicus, UniProt P04775); test: Whole-cell patch-clamp, Nav1.2 currents in HEK293T cells; format: cell-based
T6 construct: expressed in transfected cells; host or cells: HEK293T
From the text: as §2, with “Moreover, the amino acid residues D816 and E818 in the S3b–S4 sequence of Nav1.7 were mutated into N (Nav1.7 D816N) and Q (Nav1.7 E816Q), respectively.” left out
as §3, with “transfection. […]” for “transfection.”

Nav1.3 = biological target: T7, Nav1.3 (Rattus norvegicus, UniProt P08104); test: Whole-cell patch-clamp, Nav1.3 currents in HEK293T cells; format: cell-based
T7 construct: expressed in transfected cells; host or cells: HEK293T
From the text: as §2, with “Moreover, the amino acid residues D816 and E818 in the S3b–S4 sequence of Nav1.7 were mutated into N (Nav1.7 D816N) and Q (Nav1.7 E816Q), respectively.” left out
as §3, with “transfection. […]” for “transfection.”

[5] = tested on: nociceptive neuron excitability; conditions: orofacial and other regions in patients; cited from earlier work
From the text: Kv4 channels are expressed predominately in the somata of small and large diameter nociceptors and the dorsal horn of the spinal cord, and all three Kv4 mRNA isoforms (Kv4.1–4.3) are expressed in whole DRG preparations. Overexpression of various components of the Kv4 complex attenuated DGR excitability and pain phenotypes of animals. The drugs that can increase A-type Kv ...

[6] = tested on: rodent models of acute and inflammatory pain; conditions: cited from earlier work
Nav1.7 [7] = conditions: cited from earlier work
From the text: In order to further understand the actions of HpTx3 on the Nav1.7 channel, we examined the effect of the toxin on the current–voltage (I–V) relationship of the Nav channel subtype. […] When the conductance–voltage (G–V) relationship and the steady-state inactivation of Nav1.7 before and after HpTx3 treatment were inve ...

Nav1.1–1.8 = conditions: cited from earlier work
[8] = HEK293T, whole-cell patch-clamp, mean ± SD, n = 4–6
[9] = also ref 20 (HwTx-IV), 36 (HnTx-III), 37 (HnTx-IV)

T1 sequence (Q15858 other isoform, or with tags, fused parts or gaps D816N): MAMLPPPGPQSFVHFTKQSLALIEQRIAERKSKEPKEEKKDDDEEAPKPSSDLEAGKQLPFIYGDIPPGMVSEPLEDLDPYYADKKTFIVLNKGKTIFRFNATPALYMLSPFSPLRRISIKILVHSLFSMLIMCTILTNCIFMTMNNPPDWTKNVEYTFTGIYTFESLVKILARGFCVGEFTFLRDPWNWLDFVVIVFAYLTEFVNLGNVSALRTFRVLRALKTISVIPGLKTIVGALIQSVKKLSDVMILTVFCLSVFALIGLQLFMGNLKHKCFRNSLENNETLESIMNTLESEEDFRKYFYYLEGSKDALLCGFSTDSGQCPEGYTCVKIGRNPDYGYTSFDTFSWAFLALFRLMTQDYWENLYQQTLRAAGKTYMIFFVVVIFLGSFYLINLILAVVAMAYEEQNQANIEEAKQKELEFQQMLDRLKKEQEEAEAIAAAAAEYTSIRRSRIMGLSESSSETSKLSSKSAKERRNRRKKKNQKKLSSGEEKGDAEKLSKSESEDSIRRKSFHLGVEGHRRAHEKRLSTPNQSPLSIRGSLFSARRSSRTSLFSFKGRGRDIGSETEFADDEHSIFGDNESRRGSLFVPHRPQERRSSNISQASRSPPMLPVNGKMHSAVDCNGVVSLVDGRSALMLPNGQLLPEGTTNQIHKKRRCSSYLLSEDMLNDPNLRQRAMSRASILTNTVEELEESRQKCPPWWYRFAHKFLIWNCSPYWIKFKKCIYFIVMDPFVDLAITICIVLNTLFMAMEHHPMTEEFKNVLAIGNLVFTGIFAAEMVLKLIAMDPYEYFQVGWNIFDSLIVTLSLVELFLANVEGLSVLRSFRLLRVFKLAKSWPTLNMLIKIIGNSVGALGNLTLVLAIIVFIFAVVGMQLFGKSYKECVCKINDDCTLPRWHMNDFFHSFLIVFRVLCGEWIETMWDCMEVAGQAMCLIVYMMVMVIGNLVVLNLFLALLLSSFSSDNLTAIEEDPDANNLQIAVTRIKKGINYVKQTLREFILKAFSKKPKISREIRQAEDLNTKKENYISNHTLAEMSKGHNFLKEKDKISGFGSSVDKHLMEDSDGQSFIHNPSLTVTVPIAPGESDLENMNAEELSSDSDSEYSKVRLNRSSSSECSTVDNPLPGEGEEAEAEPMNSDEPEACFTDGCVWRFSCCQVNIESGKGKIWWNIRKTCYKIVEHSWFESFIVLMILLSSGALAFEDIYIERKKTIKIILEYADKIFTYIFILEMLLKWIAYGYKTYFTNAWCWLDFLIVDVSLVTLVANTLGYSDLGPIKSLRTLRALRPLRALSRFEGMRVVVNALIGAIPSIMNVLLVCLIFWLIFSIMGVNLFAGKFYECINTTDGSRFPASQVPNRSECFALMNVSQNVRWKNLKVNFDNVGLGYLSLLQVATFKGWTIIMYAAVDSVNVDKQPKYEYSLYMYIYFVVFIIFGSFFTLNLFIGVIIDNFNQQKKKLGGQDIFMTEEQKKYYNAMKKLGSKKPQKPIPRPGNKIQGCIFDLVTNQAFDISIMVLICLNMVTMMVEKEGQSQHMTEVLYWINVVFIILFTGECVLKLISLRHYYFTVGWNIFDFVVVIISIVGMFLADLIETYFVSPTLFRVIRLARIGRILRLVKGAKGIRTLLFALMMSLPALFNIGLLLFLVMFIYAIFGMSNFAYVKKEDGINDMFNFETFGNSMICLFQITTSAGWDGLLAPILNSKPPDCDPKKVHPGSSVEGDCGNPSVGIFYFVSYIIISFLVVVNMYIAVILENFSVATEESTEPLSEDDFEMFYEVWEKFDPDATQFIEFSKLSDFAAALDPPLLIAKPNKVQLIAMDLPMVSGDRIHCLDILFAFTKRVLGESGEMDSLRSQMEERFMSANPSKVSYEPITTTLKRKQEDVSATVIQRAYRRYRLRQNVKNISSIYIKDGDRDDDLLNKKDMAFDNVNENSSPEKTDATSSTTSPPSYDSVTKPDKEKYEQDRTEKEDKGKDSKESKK
T1 sequence (Q07699 19-218, further chain): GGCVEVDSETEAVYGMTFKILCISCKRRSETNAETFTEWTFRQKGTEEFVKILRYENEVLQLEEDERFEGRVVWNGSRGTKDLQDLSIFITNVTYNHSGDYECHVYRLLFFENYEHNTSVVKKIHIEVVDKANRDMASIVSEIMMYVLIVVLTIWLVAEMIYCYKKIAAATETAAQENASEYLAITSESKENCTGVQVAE
T1 sequence (O60939 30-215, further chain): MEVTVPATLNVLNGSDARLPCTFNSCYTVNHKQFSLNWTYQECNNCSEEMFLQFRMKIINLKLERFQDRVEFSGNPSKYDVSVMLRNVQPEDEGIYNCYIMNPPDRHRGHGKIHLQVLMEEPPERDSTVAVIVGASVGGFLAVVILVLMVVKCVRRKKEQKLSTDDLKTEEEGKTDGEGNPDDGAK
T3 sequence (P15390 whole entry): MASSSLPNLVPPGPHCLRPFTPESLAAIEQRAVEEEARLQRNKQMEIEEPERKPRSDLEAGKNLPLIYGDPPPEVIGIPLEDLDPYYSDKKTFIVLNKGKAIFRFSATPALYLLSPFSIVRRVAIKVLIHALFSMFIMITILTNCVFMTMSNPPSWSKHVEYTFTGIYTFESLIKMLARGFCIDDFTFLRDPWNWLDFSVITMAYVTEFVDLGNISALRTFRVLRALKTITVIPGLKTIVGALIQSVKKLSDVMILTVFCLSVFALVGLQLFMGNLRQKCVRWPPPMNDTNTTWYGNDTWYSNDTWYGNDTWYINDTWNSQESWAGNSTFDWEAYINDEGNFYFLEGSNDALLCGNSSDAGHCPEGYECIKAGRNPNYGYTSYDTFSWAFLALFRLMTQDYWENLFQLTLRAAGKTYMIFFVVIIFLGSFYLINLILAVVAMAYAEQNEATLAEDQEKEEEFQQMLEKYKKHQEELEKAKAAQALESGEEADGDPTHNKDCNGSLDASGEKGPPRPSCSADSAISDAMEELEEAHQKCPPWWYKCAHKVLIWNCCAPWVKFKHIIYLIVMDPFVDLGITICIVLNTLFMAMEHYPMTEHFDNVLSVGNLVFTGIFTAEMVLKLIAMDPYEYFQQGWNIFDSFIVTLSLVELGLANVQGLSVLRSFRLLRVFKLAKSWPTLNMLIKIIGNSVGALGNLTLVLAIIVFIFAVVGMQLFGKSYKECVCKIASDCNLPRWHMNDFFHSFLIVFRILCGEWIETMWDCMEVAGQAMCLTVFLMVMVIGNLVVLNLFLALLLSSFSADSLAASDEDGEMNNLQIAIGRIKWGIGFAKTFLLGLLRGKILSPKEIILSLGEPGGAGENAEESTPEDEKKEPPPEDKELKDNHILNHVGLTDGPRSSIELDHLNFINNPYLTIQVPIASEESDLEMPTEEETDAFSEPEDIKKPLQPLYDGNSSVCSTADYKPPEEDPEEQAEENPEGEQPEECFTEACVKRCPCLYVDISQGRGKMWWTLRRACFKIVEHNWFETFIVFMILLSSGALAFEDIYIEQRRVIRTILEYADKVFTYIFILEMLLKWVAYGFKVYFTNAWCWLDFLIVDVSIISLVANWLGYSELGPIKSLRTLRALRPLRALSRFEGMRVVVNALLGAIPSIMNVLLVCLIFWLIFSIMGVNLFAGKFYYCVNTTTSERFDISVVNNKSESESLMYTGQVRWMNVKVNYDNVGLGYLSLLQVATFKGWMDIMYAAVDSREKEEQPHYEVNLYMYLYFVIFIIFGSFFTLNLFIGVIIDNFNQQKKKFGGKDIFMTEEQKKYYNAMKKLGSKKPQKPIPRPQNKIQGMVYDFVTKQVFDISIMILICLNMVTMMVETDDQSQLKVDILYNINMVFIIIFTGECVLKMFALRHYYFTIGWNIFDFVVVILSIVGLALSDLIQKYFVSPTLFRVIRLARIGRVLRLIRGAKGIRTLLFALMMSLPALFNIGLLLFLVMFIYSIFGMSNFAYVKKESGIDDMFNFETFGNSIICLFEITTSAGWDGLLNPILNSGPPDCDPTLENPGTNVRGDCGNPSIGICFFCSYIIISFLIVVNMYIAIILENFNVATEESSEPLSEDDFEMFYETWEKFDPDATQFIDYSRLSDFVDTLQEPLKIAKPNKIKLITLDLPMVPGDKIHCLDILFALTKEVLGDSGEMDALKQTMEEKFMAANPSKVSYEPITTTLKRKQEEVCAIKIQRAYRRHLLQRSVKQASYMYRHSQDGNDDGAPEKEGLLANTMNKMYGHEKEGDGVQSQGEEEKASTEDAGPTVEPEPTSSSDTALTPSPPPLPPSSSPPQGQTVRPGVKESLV
T5 sequence (O60939 30-215): as the sequence (O60939 30-215, further chain) above
T5 sequence (Q07699 19-218, further chain): as the sequence (Q07699 19-218, further chain) above
T5 sequence (Q15858 other isoform, or with tags, fused parts or gaps): as the sequence (Q15858 other isoform, or with tags, fused parts or gaps D816N) above, with N816D counted along it

Molecule: CN1CC[C@]23c4c5ccc(O)c4O[C@H]2[C@@H](O)C=C[C@H]3[C@H]1C5 [morphine]
- total paw licking time, phase I ([1]; 0–10 min after formalin, control 248 s): 99 s
- total paw licking time, phase II ([1]; 15–35 min after formalin, control 572.7 s): 134.3 s
- time of strongest analgesic effect after injection, CFA [2]: 0.5 h
- paw withdrawal threshold, CFA ([2]; control 0.71 g, n = 8): 1.05 g
- time of most analgesic effect after injection, hot plate [3]: 0.5 h
- average paw withdrawal latency, hot plate ([3]; 55 ± 1 °C, control 5.93 s, n = 8): 11.03 s
- average paw withdrawal threshold, SNI (C57BL/6 mice, SNI model): 1.05 g

Molecule: CC[C@H](C)[C@@H]1NC(=O)[C@H](Cc2ccccc2)NC(=O)CNC(=O)[C@H](CCC(=O)O)NC(=O)[C@@H]2CSSC[C@H](NC(=O)[C@@H](N)CCC(=O)O)C(=O)NCC(=O)N[C@@H]([C@@H](C)O)C(=O)N[C@@H](CC(C)C)C(=O)N[C@@H](Cc3ccccc3)C(=O)N[C@@H](CO)C(=O)NCC(=O)N[C@H]3CSSC[C@H](NC1=O)C(=O)N[C@@H](CCCCN)C(=O)N[C@@H](CC(C)C)C(=O)N[C@@H](Cc1c[nH]c4ccccc14)C(=O)N[C@H](C(=O)N[C@@H](CCCNC(=N)N)C(=O)N[C@@H](Cc1ccc(O)cc1)C(=O)N[C@@H](CCC(=O)O)C(=O)N[C@@H](CCCNC(=N)N)C(=O)N[C@H](C(=O)N[C@@H](Cc1c[nH]c4ccccc14)C(N)=O)[C@@H](C)O)CSSC[C@H](NC(=O)[C@H](CC(=O)O)NC(=O)[C@H](C)NC(=O)[C@H](Cc1c[nH]cn1)NC(=O)[C@H]([C@@H](C)O)NC(=O)[C@H](CO)NC3=O)C(=O)N2 [HpTx3, Heteropodatoxin3] (H-ECGTLFSGCSTHADCCEGFICKLWCRYERTW-NH2; disulfide 2-16, 9-21, 15-25)
- IC50 (Nav1.7 D816N; HEK293T, mean ± SD, n = 6): 3.13 ± 2.6 µM
- inhibition at 1 µM (Nav1.7 D816N; HEK-293T, 1 μM HpTx3, HEK293T, n = 6, read-out: inhibition of Nav1.7 D816N current): 23.7%
- IC50 difference Nav1.7 D816N versus wild type Nav1.7 (Nav1.7 D816N; ratio of IC50): 23 fold
- inhibition at 1 µM (Nav1.5; HEK-293T, 1 μM HpTx3, HEK293T, whole-cell patch-clamp, n = 4–6, read-out: inhibition of Nav1.5 currents): 12.8%
- selectivity for Nav1.7 over Nav1.5 (Nav1.5; ratio of IC50): 122 fold
- IC50 (Nav1.4; [8]): 18.5 ± 0.21 µM
- selectivity for Nav1.7 over Nav1.4 (Nav1.4; ratio of IC50): 136 fold
- inhibition at 1 µM (Nav1.6): 46%
- IC50 (Nav1.7 [4]): 136 ± 13 nM
- inhibition of hERG channel current (hERG channel): about 40%
- course of symptoms (C57BL/6 mice; after 5 min and after 10 min): the symptoms became gradually weaker and disappeared completely after 10 min
- symptoms after injection (C57BL/6 mice; within 5 min after injection): some discomfort symptoms such as body curling and writhing
- IC50 (Nav1.2; [8]): 19.7 ± 0.49 µM
- selectivity for Nav1.7 over Nav1.2 (Nav1.2; ratio of IC50): 145 fold
- IC50 (Nav1.3; [8]): 14.1 ± 2.5 µM
- selectivity for Nav1.7 over Nav1.3 (Nav1.3; ratio of IC50): 104 fold

Molecule: O=C1[O][Pt]2([NH][C@@H]3CCCC[C@H]3[NH]2)[O]C1=O [Oxaliplatin]
- effect on nociceptive neuron excitability [5]: increases nociceptive neuron excitability to result in neuropathic pain

Molecule: ProTx-II: typical gating modifier toxin
- efficacy in rodent models of acute and inflammatory pain [6]: not efficacious
- shift of Nav1.7 channel activation in the depolarizing direction (Nav1.7 [7]): 31.1 mV
- inhibition of sodium channel subtypes (Nav1.1–1.8): can inhibit multiple sodium channel subtypes (Nav1.1–1.8), but preferentially inhibits hNav1.7

Molecule: HwTx-IV: Nav1.7-targeting peptide toxin
- alteration in voltage-dependence of activation and steady-state inactivation of Nav1.7 (Nav1.7 [7]; [9]): less than 5 mV
- effect on I-V relationship for Nav1.7 (Nav1.7 [7]; [9]): do not alter the I-V relationship
